Values quoted from earlier work as cited in patent publication US20170304164A1, “COMPOSITIONS, APPARATUS AND METHODS FOR MONITORING AND IMPROVING ORAL HEALTH” (Berkeley NOX Limited, priority 2016, published 2017).

Key:
Desulfovibrio spp. = details: 0.2 mM nitrate
Fusobacterium nucleatum = details: under acidic conditions
Eikenella corrodens = details: under acidic conditions
Streptococcus mutans = details: 0.2 mM nitrite, acidity levels below pH 7
Porphyromonas gingivalis = details: under acidic conditions

SMILES	growth (Desulfovibrio spp.)	growth (Fusobacterium nucleatum)	growth (Eikenella corrodens)	effect on bacteria (Streptococcus mutans)	growth (Porphyromonas gingivalis)
O=[N+]([O-])O [nitrate]	growth is inhibited	–	–	–	–
O=NO [nitrite]	–	inhibited the growth	inhibited the growth	effective complete killing	inhibited the growth
